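Test compounds were applied to cells in 96-well plates for 48 hours at 5 doses. TGI: concentration producing complete growth inhibition.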
What follows are compounds tested on RPMI-8226 leukemia (assay: NCI tumour cell line growth inhibition, 48 h).

SMILES | TGI
Nc1nc2[nH]c(=O)cnc2c(=O)[nH]1 | > 125 µM
O=[N+]([O-])c1ccc2[nH]c3c(-c4ccccc4)nccc3c2c1 | > 100 µM

These compounds were tested on COLO 205 colon (assay: NCI tumour cell line growth inhibition, 48 h).

SMILES | TGI
CCCCCOc1ccc(C=Nc2ccc(-c3ccc(N=Cc4ccc(OCCCCC)cc4)c(OC)c3)cc2OC)cc1 | > 100 µM
CN(C)CCN=C1c2ccccc2-c2c(=O)n(CCN(C)C)c(O)c3cccc1c23 | 0.27 µM
Nc1nc2[nH]c(=O)cnc2c(=O)[nH]1 | > 125 µM
O=[N+]([O-])c1ccc2[nH]c3c(-c4ccccc4)nccc3c2c1 | > 86.8 µM

Each compound was assayed on A549 NSCLC (assay: NCI tumour cell line growth inhibition, 48 h).

SMILES | TGI
CCCCCOc1ccc(C=Nc2ccc(-c3ccc(N=Cc4ccc(OCCCCC)cc4)c(OC)c3)cc2OC)cc1 | > 100 µM
CN(C)CCN=C1c2ccccc2-c2c(=O)n(CCN(C)C)c(O)c3cccc1c23 | 0.461 µM
Nc1nc2[nH]c(=O)cnc2c(=O)[nH]1 | > 125 µM
O=[N+]([O-])c1ccc2[nH]c3c(-c4ccccc4)nccc3c2c1 | > 62 µM

The compounds below were run on HOP-18 NSCLC (assay: NCI tumour cell line growth inhibition, 48 h).

SMILES | TGI
CCCCCOc1ccc(C=Nc2ccc(-c3ccc(N=Cc4ccc(OCCCCC)cc4)c(OC)c3)cc2OC)cc1 | > 100 µM
CN(C)CCN=C1c2ccccc2-c2c(=O)n(CCN(C)C)c(O)c3cccc1c23 | 0.603 µM
Nc1nc2[nH]c(=O)cnc2c(=O)[nH]1 | > 5.8 µM
O=[N+]([O-])c1ccc2[nH]c3c(-c4ccccc4)nccc3c2c1 | 61.9 µM

These compounds were tested on KM12 colon (assay: NCI tumour cell line growth inhibition, 48 h).

SMILES | TGI
CCCCCOc1ccc(C=Nc2ccc(-c3ccc(N=Cc4ccc(OCCCCC)cc4)c(OC)c3)cc2OC)cc1 | > 100 µM
CN(C)CCN=C1c2ccccc2-c2c(=O)n(CCN(C)C)c(O)c3cccc1c23 | 1.25 µM
Nc1nc2[nH]c(=O)cnc2c(=O)[nH]1 | > 125 µM
O=[N+]([O-])c1ccc2[nH]c3c(-c4ccccc4)nccc3c2c1 | > 100 µM

Each compound was assayed on SF-268 CNS (assay: NCI tumour cell line growth inhibition, 48 h).

SMILES | TGI
CCCCCOc1ccc(C=Nc2ccc(-c3ccc(N=Cc4ccc(OCCCCC)cc4)c(OC)c3)cc2OC)cc1 | > 100 µM
CN(C)CCN=C1c2ccccc2-c2c(=O)n(CCN(C)C)c(O)c3cccc1c23 | 0.578 µM
Nc1nc2[nH]c(=O)cnc2c(=O)[nH]1 | > 125 µM
O=[N+]([O-])c1ccc2[nH]c3c(-c4ccccc4)nccc3c2c1 | > 80 µM

The compounds below were run on OVCAR-8 ovarian (assay: NCI tumour cell line growth inhibition, 48 h).

SMILES | TGI
CCCCCOc1ccc(C=Nc2ccc(-c3ccc(N=Cc4ccc(OCCCCC)cc4)c(OC)c3)cc2OC)cc1 | > 100 µM
CN(C)CCN=C1c2ccccc2-c2c(=O)n(CCN(C)C)c(O)c3cccc1c23 | 0.433 µM
Nc1nc2[nH]c(=O)cnc2c(=O)[nH]1 | > 125 µM
O=[N+]([O-])c1ccc2[nH]c3c(-c4ccccc4)nccc3c2c1 | > 58.7 µM

These compounds were tested on HT29 colon (assay: NCI tumour cell line growth inhibition, 48 h).

SMILES | TGI
CCCCCOc1ccc(C=Nc2ccc(-c3ccc(N=Cc4ccc(OCCCCC)cc4)c(OC)c3)cc2OC)cc1 | > 100 µM
CN(C)CCN=C1c2ccccc2-c2c(=O)n(CCN(C)C)c(O)c3cccc1c23 | 0.257 µM
Nc1nc2[nH]c(=O)cnc2c(=O)[nH]1 | > 125 µM
O=[N+]([O-])c1ccc2[nH]c3c(-c4ccccc4)nccc3c2c1 | > 100 µM

Each compound was assayed on SNB-78 CNS (assay: NCI tumour cell line growth inhibition, 48 h).

SMILES | TGI
CCCCCOc1ccc(C=Nc2ccc(-c3ccc(N=Cc4ccc(OCCCCC)cc4)c(OC)c3)cc2OC)cc1 | > 100 µM
CN(C)CCN=C1c2ccccc2-c2c(=O)n(CCN(C)C)c(O)c3cccc1c23 | 1.73 µM
Nc1nc2[nH]c(=O)cnc2c(=O)[nH]1 | > 125 µM
O=[N+]([O-])c1ccc2[nH]c3c(-c4ccccc4)nccc3c2c1 | 93.1 µM

Each compound was assayed on MOLT-4 leukemia (assay: NCI tumour cell line growth inhibition, 48 h).

SMILES | TGI
CCCCCOc1ccc(C=Nc2ccc(-c3ccc(N=Cc4ccc(OCCCCC)cc4)c(OC)c3)cc2OC)cc1 | > 100 µM
CN(C)CCN=C1c2ccccc2-c2c(=O)n(CCN(C)C)c(O)c3cccc1c23 | 28 µM
Nc1nc2[nH]c(=O)cnc2c(=O)[nH]1 | > 125 µM
O=[N+]([O-])c1ccc2[nH]c3c(-c4ccccc4)nccc3c2c1 | 16.4 µM

These compounds were tested on OVCAR-5 ovarian (assay: NCI tumour cell line growth inhibition, 48 h).

SMILES | TGI
CCCCCOc1ccc(C=Nc2ccc(-c3ccc(N=Cc4ccc(OCCCCC)cc4)c(OC)c3)cc2OC)cc1 | > 100 µM
CN(C)CCN=C1c2ccccc2-c2c(=O)n(CCN(C)C)c(O)c3cccc1c23 | 0.794 µM
Nc1nc2[nH]c(=O)cnc2c(=O)[nH]1 | > 107 µM
O=[N+]([O-])c1ccc2[nH]c3c(-c4ccccc4)nccc3c2c1 | > 100 µM

These compounds were tested on OVCAR-4 ovarian (assay: NCI tumour cell line growth inhibition, 48 h).

SMILES | TGI
CCCCCOc1ccc(C=Nc2ccc(-c3ccc(N=Cc4ccc(OCCCCC)cc4)c(OC)c3)cc2OC)cc1 | > 31.6 µM
CN(C)CCN=C1c2ccccc2-c2c(=O)n(CCN(C)C)c(O)c3cccc1c23 | 0.154 µM
Nc1nc2[nH]c(=O)cnc2c(=O)[nH]1 | > 125 µM
O=[N+]([O-])c1ccc2[nH]c3c(-c4ccccc4)nccc3c2c1 | > 63.1 µM

Each compound was assayed on HL-60(TB) leukemia (assay: NCI tumour cell line growth inhibition, 48 h).

SMILES | TGI
CCCCCOc1ccc(C=Nc2ccc(-c3ccc(N=Cc4ccc(OCCCCC)cc4)c(OC)c3)cc2OC)cc1 | > 100 µM
CN(C)CCN=C1c2ccccc2-c2c(=O)n(CCN(C)C)c(O)c3cccc1c23 | 0.592 µM
Nc1nc2[nH]c(=O)cnc2c(=O)[nH]1 | > 125 µM
O=[N+]([O-])c1ccc2[nH]c3c(-c4ccccc4)nccc3c2c1 | 26.4 µM

These compounds were tested on SF-539 CNS (assay: NCI tumour cell line growth inhibition, 48 h).

SMILES | TGI
CCCCCOc1ccc(C=Nc2ccc(-c3ccc(N=Cc4ccc(OCCCCC)cc4)c(OC)c3)cc2OC)cc1 | > 100 µM
CN(C)CCN=C1c2ccccc2-c2c(=O)n(CCN(C)C)c(O)c3cccc1c23 | 1.82 µM
Nc1nc2[nH]c(=O)cnc2c(=O)[nH]1 | > 125 µM
O=[N+]([O-])c1ccc2[nH]c3c(-c4ccccc4)nccc3c2c1 | > 100 µM

What follows are compounds tested on HCC-2998 colon (assay: NCI tumour cell line growth inhibition, 48 h).

SMILES | TGI
CCCCCOc1ccc(C=Nc2ccc(-c3ccc(N=Cc4ccc(OCCCCC)cc4)c(OC)c3)cc2OC)cc1 | > 100 µM
